From article PMC9481026 (PLoS ONE, 2022)
Converted amounts (≈) assume the structure as drawn. Like-named read-outs stand apart in the source and are kept apart here.

Experiments:
RVFV MP-12 = assay: microbe, parasite or virus in culture; format: cell-based, Rift Valley fever virus; details: read-out: Estimated EC50
Human RNase H1 = biological target: T1, Human RNase H1 (Homo sapiens, UniProt O60930); assay: biochemical
T1 construct: made in house; host or cells: E. coli
T1 sequence (O60930 1-286): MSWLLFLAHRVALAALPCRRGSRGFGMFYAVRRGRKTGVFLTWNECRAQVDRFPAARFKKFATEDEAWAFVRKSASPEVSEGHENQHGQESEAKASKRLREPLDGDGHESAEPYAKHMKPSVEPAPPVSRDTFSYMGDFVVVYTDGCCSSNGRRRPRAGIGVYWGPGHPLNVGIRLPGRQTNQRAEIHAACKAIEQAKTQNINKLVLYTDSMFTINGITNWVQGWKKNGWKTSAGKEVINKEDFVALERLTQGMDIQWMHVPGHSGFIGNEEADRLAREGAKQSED

C. neoformans = assay: microbe, parasite or virus in culture; format: cell-based; details: for MIC80: Cryptococcus neoformans, read-out: C. neoformans (MIC80, μM)
RVFV strain MP-12 [1] = assay: microbe, parasite or virus in culture; format: cell-based, Rift Valley fever virus
Staphylo-coccus spp. = assay: organism not typed; format: cell-based
RVFV strain MP-12 [2] = assay: microbe, parasite or virus in culture; format: cell-based, Rift Valley fever virus; details: read-out: A549 EC50
LACV = assay: microbe, parasite or virus in culture; format: cell-based, La Crosse virus; details: read-out: LACV EC50
ZIKV = assay: microbe, parasite or virus in culture; format: cell-based, Zika virus; details: read-out: ZIKV EC50
in vitro = details: African green monkey, CC50
[3] = read-out: Human RNase H1 (IC50)
[4] = Rift Valley fever virus, Vero, 24 h

Structure (SMILES) | EC50 (RVFV MP-12) | IC50 (Human RNase H1; [3]) | CC50 (Vero cells) | C. neoformans (MIC80, μM) (C. neoformans) | EC50 (RVFV strain MP-12 [1]; read-out: RVFV (EC50)) | further results
CCOC(=O)c1sc(NC(=O)CSc2nnc(Cc3ccccc3)o2)c(C#N)c1C [Compound 6] | > 120 µM |  |  |  |  | 
O=c1c(O)c(-c2ccc(O)c(O)c2)oc2cc(O)c(O)c(O)c12 [Compound 7, Quercetagetin] |  |  |  |  |  | EC50 (RVFV MP-12; Rift Valley fever virus, Vero): > 120 µM
NC(=O)c1c(N)sc2c1CCCCC2 [Compound 22] | > 120 µM |  |  |  |  | 
CC(C)c1cccc(=O)c(O)c1 [Compound 47, β-thujaplicin, reference compound] |  |  |  |  |  | EC50 (RVFV MP-12; Rift Valley fever virus, Vero): > 120 µM
CC(C)c1ccc(O)c(=O)cc1 [Compound 48, γ -thujaplicin, reference compound] |  |  |  |  |  | EC50 (RVFV MP-12; Rift Valley fever virus, Vero): > 120 µM
Cc1cc(O)c(=O)c(O)cc1C(=O)c1ccccc1 [Compound 111] |  | 48 µM | > 120 µM | 36 µM | 19 µM | 
Cc1cc(O)c(=O)c(O)cc1-c1ccccc1 [Compound 113] |  | 174 µM | > 120 µM | 24 µM | 10.3 µM | 
Cc1cc(O)c(=O)c(O)cc1C(=O)c1ccc(-c2ccccc2)cc1 [Compound 118] |  | > 500 µM | > 120 µM | 15 µM | 11 µM | 
Cc1cc(O)c(=O)c(O)cc1C(=O)C1CCCCC1 [Compound 120] |  | 81 µM | > 120 µM | 12 µM | 15.6 µM | 
O=C(O)CC(=O)CC(=O)c1cccs1 [Compound 129] | > 120 µM |  |  |  |  | 
O=C1c2ccccc2C(=O)N1O [Compound 138] | > 120 µM |  |  |  |  | 
COC(=O)c1c(C)cc(O)c(=O)c(O)c1O [Compound 196] |  | 408 µM | > 120 µM |  | 23.9 µM | CC50 (HepDES19): 6 µM; Staphylo-coccus spp. (MIC80, μM) (Staphylo-coccus spp.): 67 µM
CC1=CC(O)N(O)C(O)=C1C(C)=Nc1ccccc1N (stereo not drawn) [Compound 208] | 14 µM | 194 µM | > 120 µM | 30 µM | > 120 µM | CC50 (HepDES19): 14.4 µM
Cc1ccc(O)c(=O)c(O)c1 [Compound 210] | 8 µM | 85 µM | > 120 µM | 15 µM |  | EC50 (RVFV strain MP-12 [1]; read-out: EC50): 11.8 µM
Cc1cc(O)c(=O)c(O)cc1-c1cccc(-c2cccc3ccccc23)c1 [Compound 234] | 19 µM |  | > 120 µM |  |  | 
Cc1cc(O)c(=O)c(O)cc1C(=O)c1ccc(-c2ccncc2)cc1 [Compound 260] |  | 277 µM | > 120 µM | 50 µM | 31.6 µM | CC50 (HepDES19): 45 µM
O=c1c(O)ccc(-c2ccco2)cc1O [Compound 265] |  | 57 µM | > 120 µM | 11 µM | 15.4 µM | Staphylo-coccus spp. (MIC80, μM) (Staphylo-coccus spp.): 30 µM
O=C1C=CC(=O)c2ccccc21 [Compound 327] | 2 µM | 47 µM |  | 9.1 µM |  | EC50 (RVFV strain MP-12 [2]): 19.6 µM; CC50 (A549 cells): 27.5 µM; CC50 (HepDES19): 18.5 µM; EC50 (LACV): 12.7 µM; EC50 (ZIKV): > 120 µM; EC50 (RVFV strain MP-12 [1]; read-out: EC50): 39.7 µM; EC50 (RVFV strain MP-12 [1]; read-out: Vero EC50): 39.7 µM
COC(=O)c1c(C)cc(O)c(=O)c(O)c1Br [Compound 335] | 3 µM | 111 µM | > 120 µM | 50 µM | 40.8 µM | EC50 (RVFV strain MP-12 [2]): > 120 µM; CC50 (A549 cells): 96.2 µM; EC50 (LACV): > 120 µM; EC50 (ZIKV): > 120 µM; EC50 (RVFV strain MP-12 [1]; read-out: EC50): 40.8 µM; EC50 (RVFV strain MP-12 [1]; read-out: Vero EC50): 40.8 µM
Cc1cc(O)c(=O)c(O)cc1S(=O)(=O)c1ccccc1 [Compound 336] |  |  |  |  |  | EC50 (RVFV MP-12; Rift Valley fever virus, Vero): 3 µM; IC50 (Human RNase H1): 85 µM; CC50 (Vero cells; African green monkey): 65.8 µM; MIC80 (C. neoformans): 50 µM (≈ 14.6 µg/mL); EC50 (RVFV strain MP-12 [1]; [4]): 9 µM; CC50 (in vitro): 70 µM
Cc1ccc(/C=C/C(=O)c2ccccc(=O)c2O)cc1 [Compound 340] | 3 µM | > 500 µM | 70 µM | 49 µM |  | CC50 (HepDES19): 18.7 µM; EC50 (RVFV strain MP-12 [1]; read-out: EC50): 27.3 µM
O=C(/C=C/c1cccc(Br)c1)c1ccccc(=O)c1O [Compound 341] |  |  |  |  |  | EC50 (RVFV MP-12; Rift Valley fever virus, Vero): 2 µM; IC50 (Human RNase H1): > 500 µM; MIC80 (Staphylo-coccus spp.; read-out: Staphylo-coccus spp. (MIC80, μM)): 44 µM (≈ 14.6 µg/mL); MIC80 (C. neoformans): 24 µM (≈ 7.95 µg/mL); EC50 (RVFV strain MP-12 [1]; [4]): 25.2 µM; CC50 (in vitro): > 120 µM
